From patent US20220367023A1, “Method for Predicting a Suitable Therapy” (National University of Singapore, priority 2019, published 2022)
Read-outs that look alike come from different tables or passages of the source.

System: primary HSTCL cells from a patient
Assay: Ex vivo QPOP drug combination sensitivity, CellTiter-Glo cell viability (11 drugs at 3 doses, OACD)
Format: cell-based, human
[1] = Homo sapiens, concentration used in the ex vivo QPOP experiment, read-out: IC15
[2] = Homo sapiens, concentration used in the ex vivo QPOP experiment, read-out: IC30
[3] = output cell viability, 11 drugs at 3 doses
[4] = concentration used in the ex vivo QPOP experiment

Protocol: Tumor cells from an oncology patient sample are treated with a series of test drug combinations defined by Resolution IV Orthogonal Array Composite Design. This array of tests is used to derive coefficients for single drug and drug-drug interactions for all the drugs within the drug search set. These coefficients are used to calculate a predicted output of potential drug combinations (up to 4 drugs) from the drug search set. Patient-specific drug combinations are prioritized based on predicted output of single drug, 2-drug, 3-drug or 4-drug combinations.
In the current embodiment, primary patient sample that contains tumor cells, either from a blood sample or solid tumor biopsy, is collected. Tumor cells are isolated and seeded 2000 cells/well in Nunc™ 384-Well Clear Polystyrene Plates. In the examples used here, cell viability was performed using the CellTiter-Glo® Luminescent Cell Viability Assay following the manufacturer's instructions (Promega, Madison, Wis., USA).
Datasets for analysis by QPOP are built by ex vivo treatment of primary patient tumor cells with a series of drug combinations determined by orthogonal array composite design (OACD) to use the least number of combinations sufficient for factor screening and in-depth analyses, in concentrations that are at or below clinically approved doses (max Pk conc.), Table 1. […] In these examples here, the viability of cells exposed to the various drug combinations are the phenotypic output which is analyzed by the QPOP assay. The correlation of treatment combination (input) and viability (output) was fitted into a second-order quadratic equation. The coefficients of the second-order equation represent the correlation between the input, drug dose of the drug combination, and the output cell viability, allowing for optimizing drug combination. In the analysis, each drug combination was represented as a vector and coded dosages were used in MATLAB. The second-order quadratic equation is as follows:
where y represents the desired output, xn is the nth drug dosage, β0 is the intercept term, βn is the single-drug coefficient of the nth drug, βmn is the interaction coefficient between the mth and nth drugs, and βnn is the quadratic coefficient for the nth drug. […] The coefficients were calibrated using the data points in dose response assay of single drugs and drug combination (Table 2). To ensure the robustness and integrity of the assay, Z′ score is calculated after every QPOP analysis.

Molecule	IC15 [1]	IC30 [2]	Coefficient estimates of the second-order quadratic fit [3]	IC15 (Homo sapiens)	IC30 (Homo sapiens)	other results
CC(C)C[C@H](NC(=O)[C@H](Cc1ccccc1)NC(=O)c1cnccn1)B(O)O [Bortezomib]	0.006 µM	0.012 µM	5456	–	–	–
N.N.[Cl][Pt][Cl] [Cisplatin]	–	–	−0.06756	–	–	IC15 (concentration used in the ex vivo QPOP experiment, read-out: IC15): 1.5 µM; IC30 (concentration used in the ex vivo QPOP experiment, read-out: IC30): 3 µM; Estimate, single-drug coefficient of the second-order quadratic fit [3]: 0.06189
O=P1(N(CCCl)CCCl)NCCCO1 (centres unmarked) [Cyclophosphamide]	–	–	–	30 µM	60 µM	–
Nc1ccn([C@@H]2O[C@H](CO)[C@@H](O)[C@@H]2O)c(=O)n1 [Cytarabine]	–	–	–	0.233 µM	0.466 µM	–
C[C@@H]1C[C@H]2[C@@H]3CCC4=CC(=O)C=C[C@]4(C)[C@@]3(F)[C@@H](O)C[C@]2(C)[C@@]1(O)C(=O)CO [Dexamethasone]	–	–	–	0.06 µM	0.12 µM	–
COc1cccc2c1C(=O)c1c(O)c3c(c(O)c1C2=O)C[C@@](O)(C(=O)CO)C[C@@H]3O[C@H]1C[C@H](N)[C@H](O)[C@H](C)O1 [Doxorubucin]	0.0225 µM	0.045 µM	–	–	–	–
COc1cc([C@@H]2c3cc4c(cc3[C@@H](O[C@@H]3O[C@@H]5CO[C@@H](C)O[C@H]5[C@H](O)[C@H]3O)[C@H]3COC(=O)[C@H]23)OCO4)cc(OC)c1O [Etoposide]	0.283 µM	0.565 µM	−3.739	–	–	–
Nc1ccn([C@@H]2O[C@H](CO)[C@@H](O)C2(F)F)c(=O)n1 [Gemcitabine]	0.00779 µM	0.0156 µM	–	–	–	–
O=P1(NCCCl)OCCCN1CCCl (centres unmarked) [Ifosfamide]	–	–	–	15 µM	30 µM	Estimate, quadratic coefficient of the second-order quadratic fit [3]: 0.001006
CN(Cc1cnc2nc(N)nc(N)c2n1)c1ccc(C(=O)N[C@@H](CCC(=O)O)C(=O)O)cc1 [Methotrexate]	0.3 µM	0.6 µM	–	–	–	–
L-asparaginase	–	–	2.237	–	–	IC15 [4]: 0.3 IU/ml; IC30 [4]: 0.6 IU/ml; Estimate, single-drug coefficient of the second-order quadratic fit [3]: −1.282
